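Assay format: 96-well plates, 48-hour exposure. Abbreviation: GI50, concentration required for 50% inhibition of growth. At the TGI there is no net growth.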
Legend:
Experiment in all cases: growth of human tumour cells (NCI), 48 h
[1] = tested on: A549 NSCLC
[2] = tested on: UO-31 renal
[3] = tested on: HOP-92 NSCLC
[4] = tested on: SW-620 colon
[5] = tested on: SF-539 CNS
[6] = tested on: SK-MEL-5 melanoma
[7] = tested on: IGROV1 ovarian
[8] = tested on: ACHN renal
[9] = tested on: BT-549 breast
[10] = tested on: MDA-N
[11] = tested on: 786-0 renal

Row | SMILES | TGI [1] [µM] | TGI [2] [µM] | TGI [3] [µM] | TGI [4] [µM] | TGI [5] [µM] | TGI [6] [µM] | TGI [7] [µM] | TGI [8] [µM] | TGI [9] [µM] | TGI [10] [µM] | TGI [11] [µM] | GI50 [1] [µM] | GI50 [2] [µM] | GI50 [9] [µM] | GI50 [3] [µM] | GI50 [4] [µM] | GI50 [5] [µM] | GI50 [6] [µM] | GI50 [7] [µM] | GI50 [8] [µM]
1 | CC1CCN(c2cc(-c3cc4ccccc4o3)oc(=O)c2C#N)CC1 | > 100 | > 100 | 79 | > 100 | > 100 | > 100 | > 100 | > 100 |  |  |  |  |  |  |  |  |  |  |  | 
2 | CC1=NN(C(=O)c2ccc(C)cc2)C(=O)C1N=Nc1ccccc1C(=O)O (centres undefined) | > 100 | > 100 | > 100 | > 100 | > 100 | > 100 | > 100 |  |  |  |  |  |  |  |  |  |  |  |  | 
3 | O=C1Nc2ccccc2C1S(=O)(=O)c1ccccc1 (centres undefined) | > 100 | > 100 | > 100 | > 100 |  | > 100 | > 100 | > 100 | > 100 | > 100 | > 100 |  |  |  |  |  |  |  |  | 
4 | Nc1ncc(Sc2ccccc2C(=O)O)s1 | > 100 | > 100 | > 100 | > 100 | > 100 | > 100 | > 100 | > 100 | > 100 | > 100 | > 100 |  |  |  |  |  |  |  |  | 
5 | C/C(=N\Nc1nc2ccccc2n1C)c1ccc2ccccc2n1 | 16.1 | 11.8 | 37.8 | 25.8 | > 34.3 | 5.43 | 2.74 | > 54.5 | > 59.6 | 37.7 | 11.5 |  |  |  |  |  |  |  |  | 
6 | Clc1ccc(Cn2cc(/C=N/n3cnnc3)c3ccccc32)cc1 | > 100 | > 100 | 68.3 | > 100 | > 100 | > 100 | > 100 | > 100 | > 100 |  | > 100 |  |  |  |  |  |  |  |  | 
7 | CC(C)(CC1(C)NC(=O)NC1=O)OCc1ccccc1 (centres undefined) | > 100 | > 100 | > 100 | > 100 |  | > 100 | > 100 | > 100 | > 100 |  | > 100 |  |  |  |  |  |  |  |  | 
8 | COc1cccc2c1[C@H]1OC(=O)NC1CCCCC2 (some centres undefined) | > 100 | > 100 |  | > 100 | > 100 | > 100 | > 100 | > 100 |  |  | > 100 |  |  |  |  |  |  |  |  | 
9 | O/N=C1\CSc2ccccc2C1 | > 100 | > 100 | > 100 | > 100 | > 100 | > 100 | > 100 | > 100 |  | > 100 | > 100 |  |  |  |  |  |  |  |  | 
10 | O[C@]12c3ccccc3C1CCCCC2N1CCOCC1 (some centres undefined) | > 100 | > 100 |  | > 100 |  | > 100 |  | > 100 |  |  | > 100 |  |  |  |  |  |  |  |  | 
11 | Cc1ccc2oc3c(ccc(=O)n3C)c(=O)c2c1 | > 100 | > 100 | > 100 | > 100 | > 100 | > 100 | > 100 | > 100 |  | > 100 |  |  |  |  |  |  |  |  |  | 
12 | CO/C(=N\N=C(/c1ccccc1)C(F)(F)F)c1ccncc1 |  | > 100 | > 100 |  |  | 57 | > 100 |  | > 100 |  |  |  |  |  |  |  |  |  |  | 
13 | Cc1ccc(C=C(C(=O)O)C(=O)O)o1 | > 100 | > 100 |  | > 100 | > 100 | > 100 | > 100 | > 100 | > 100 | > 100 | > 100 |  |  |  |  |  |  |  |  | 
14 | CC(=O)Nc1sccc1S(=O)(=O)c1ccc(Cl)cc1 | > 100 | > 100 | > 100 | > 100 | > 100 | > 100 | > 100 | > 100 | > 100 |  | > 100 |  |  |  |  |  |  |  |  | 
15 | CCOc1cc(/C=C/C(=O)CC(=O)/C=C/c2ccc(OC(=O)CNCCN(CC)CC)c(OCC)c2)ccc1OC(=O)CNCCN(CC)CC | 15.9 | 3.82 | 6.2 | 3.41 | 3.1 | 3.17 | 3.83 | 3.54 | 3.52 |  |  | 3.81 | 1.7 | 1.45 | 1.74 | 1.29 | 1.38 | 1.55 | 1.97 | 1.92
16 | Cc1cc(C)nc(NC(=S)Nc2ccc(Cl)cc2)c1 | > 100 | > 100 |  | > 100 | > 100 | > 100 | > 100 |  | > 100 | > 100 | 80.2 |  |  |  |  |  |  |  |  | 
17 | O=C([O-])C1([n+]2c(-c3ccccc3)cc(-c3ccccc3)cc2-c2ccccc2)CC1 | > 100 |  | > 100 | > 100 | > 100 | > 100 | > 100 | > 100 |  | > 100 | > 100 |  |  |  |  |  |  |  |  | 
18 | Cc1cc2c3c(c1)CCCN3CCC2 | > 10 | > 10 | > 10 | > 10 | > 10 | > 10 | > 10 | > 10 |  | > 10 | > 10 |  |  |  |  |  |  |  |  | 
19 | O=C(/C=C/c1cccs1)c1ccc([N+](=O)[O-])cc1 | > 100 | > 100 |  | > 100 | > 100 | > 100 | > 100 | > 100 |  | > 100 | > 100 |  |  |  |  |  |  |  |  | 
20 | N#C[C@H](C(=O)c1ccccc1F)c1nc2ccccc2[nH]1 | > 100 | > 100 | > 100 | > 100 | > 100 |  | > 100 | > 100 | > 100 | > 100 | > 100 |  |  |  |  |  |  |  |  | 
21 | COCCOCCOCCC(=O)NC1CC2CCC1(C)C2(C)C (centres undefined) | > 100 | > 100 |  | > 100 | > 100 | > 100 | > 100 | > 100 | > 100 | > 100 | > 100 |  |  |  |  |  |  |  |  | 
22 | COc1cccc(N2C(=O)C3CC(CC(C)(C)C)c4c([nH]c5ccccc45)C3C2=O)c1 (centres undefined) | > 10 |  | > 10 | > 10 | 8.42 | > 10 | > 10 | > 10 | > 10 | > 10 | > 10 |  |  |  |  |  |  |  |  | 
